One assay addresses T1, BRD4(BD1+BD2) protein (Homo sapiens, UniProt O60885).
T1 construct: 5 μL of BRD4(BD1+BD2) protein solution prepared to 3.6 ng/μL; purchased BPS Bioscience Inc. 32612
The experiment in a line: BRD4 binding inhibition assay (TR-FRET). Particulars: BRD4(BD1+BD2) TR-FRET Assay Kit, reaction 2 hours at room temperature; read-out: IC50 (concentration necessary for 50% inhibition of BRD4 binding activity). The method, then: This assay measures binding inhibition activity of the test substance on the bromodomain of BRD4 protein.
BRD4 binding inhibition activity assay was carried out using a BRD4(BD1+BD2)TR-FRET Assay Kit (BPS Bioscience Inc. Catalog #32612), according to the attached instructions. In a flat-bottom 384-well white plate (Greiner 781080) there was added 8 μL of Tb-labeled donor/dye-labeled acceptor solution diluted 160-fold with 1×BRD TR-FRET Assay Buffer1, with 5 μL of BET Bromodomain Ligand diluted 40-fold with 1×BRD TR-FRET Assay Buffer1 in the test substance measuring wells and the Positive Control wells, and 5 μL of Non-acetylated Ligand1 diluted 40-fold with 1×BRD TR-FRET Assay Buffer1 in the Negative Control wells. After adding 2 μL of test substance diluted with 1×BRD TR-FRET Assay Buffer1 to the test substance measuring wells, and 2 μL of Dimethyl Sulfoxide solution diluted 100-fold with 1×BRD TR-FRET Assay Buffer1 to the Positive Control wells and Negative Control wells, 5 μL of BRD4(BD1+BD2) protein solution prepared to 3.6 ng/μL with 1×BRD TR-FRET Assay Buffer1 was added and reaction was conducted for 2 hours at room temperature. The fluorescence intensity was measured at 620 nm and 665 nm with irradiation of 340 nm excitation light into each well, using an Envision™ (Perkin-Elmer). The ratio of fluorescence intensity at […] with respect to fluorescence intensity at 620 nm for each well was recorded as the TR-FRET ratio, and the TR-FRET ratio in the presence of the test substance was calculated with the Positive Control well value as 100%, subtracting the Negative Control well value. The concentration of test substance necessary for 50% inhibition of BRD4 binding activity (IC50) was calculated from the TR-FRET ratio, and shown in Table 1.

The test system of assay [1] is AsPC-1/Cas9 cell line (human pancreatic cancer cell line AsPC-1). The experiment in a line: AsPC-1/Cas9 growth inhibition assay. In kind it is cell-based. Conditions: 5 days culture, CellTiter Glo 2.0, read-out: IC50 (Absolute IC50, 50% inhibition of cell growth). The procedure:
Human pancreatic cancer cell line AsPC-1 (ATCC Number CRL1682) was infected with Edit-R Lentiviral hCMV-Blast-Cas9 Nuclease Particle (Dharmacon, VCAS10124) in the presence of 8 μg/ml of Hexadimethrine bromide (Sigma, H9268), and after 24 hours it was exposed to 10 μg/ml of Blastcidin S (Thermo, A11139) to remove the uninfected cells, thereby establishing an AsPC-1/Cas9 cell line. The cells were maintenance cultured in a 5% CO2 incubator (37° C.) using RPMI-1640 (FujiFilm-Wako Pure Chemical Industries) containing 10% fetal bovine serum (FBS: SIGMA 173012) and penicillin/streptomycin (FujiFilm-Wako Pure Chemical Industries) (hereunder referred to simply as “culture medium”). After adding 25 μL of AsPC-1/Cas9 cell suspension prepared to 3.2×10^4 cells/mL using culture medium into each well of a 384-well plate (Greiner 781091), the cells were cultured overnight in a 5% CO2 incubator (37° C.). On the following day, 25 μL of the test substance diluted with culture medium was added to each well, and culturing was continued for 5 days in a 5% CO2 incubator (37° C.). Next, 25 μL of CellTiter Glo™ 2.0 (Promega) was added to each well, and the plate contents were mixed for 5 minutes using a plate mixer. The plate was stationed for 10 minutes at room temperature while shielded from light, and then the luminous intensity was measured with an ENVISION™ (Perkin-Elmer). The luminescence value of the wells with addition of test substance was determined as a relative value, with 100% as the luminescence value of the wells with cells but without addition of the test substance and 0% as the luminescence value of the wells without cells. A plot of test substance concentration against luminescence value % approximated a 4-parameter logistic curve, and the test substance concentration necessary for 50% inhibition of cell growth (Absolute IC50) was calculated, and is shown in Table 10. In Table 10, the antibodies listed as “CEACAM6_#84.7” are the anti-CEACAM6 antibody of Example 301-1, the antibodies listed as “003” are the anti-folate receptor α antibody of Example 301-2, and the antibodies listed as “345A12” are the anti-mesothelin antibody of Example 301-3.
According the same method as in the AsPC-1/Cas9 growth inhibition assay described in Example 313 above, the test substance concentration necessary for 50% inhibition of cell growth (Absolute IC50) in the ADC described in Example 318 was calculated and is shown in Table 12.

Where only a bound is given, the exact number is not on record here.

From patent US20240148895A1, “ANTIBODY-DRUG CONJUGATE” (Eisai R&D Management Co., Ltd., priority 2022, published 2024) come the findings set out here.

Turning to `COc1cc(=O)n(C)cc1-c1ccc2nc(N3CCC(N4CCC(C)(N)CC4)CC3)nc(C(CO)(OC3CC3)c3cccc4ccccc34)c2c1` (stereo not shown) [Example 33, 5-(2-(4-Amino-4-methyl-[1,4′-bipiperidin]-1′-yl)-4-(1-cyclopropoxy-2-hydroxy-1-(naphthalen-1-yl)ethyl)quinazolin-6-yl)-4-methoxy-1-methylpyridin-2(1H)-one], the IC50 on BRD4(BD1+BD2) protein is 440 nM; in assay [1] it was under 0.015 nM.
Consider `COc1cc(=O)n(C)cc1-c1ccc2nc(N)nc(C(CO)(CC3CC3)c3cccnc3)c2c1` (stereo not shown) [Example 25, 5-(2-Amino-4-(1-cyclopropyl-3-hydroxy-2-(pyridin-3-yl)propan-2-yl)quinazolin-6-yl)-4-methoxy-1-methylpyridin-2(1H)-one], for which the IC50 came to 130 nM on BRD4(BD1+BD2) protein and 0.057 nM in assay [1].
Take `CNCCN(C)C(=O)OCC(OC1CC1)(c1ccccc1)c1nc(N2CCC(CN3C[C@@H](C)NC[C@@H]3C)CC2)nc2ccc(-c3cn(C)c(=O)cc3OC)cc12` (stereo partly drawn) [Example 34, 2-Cyclopropoxy-2-(2-(4-(((2S,5R)-2,5-dimethylpiperazin-1-yl)methyl)piperidin-1-yl)-6-(4-methoxy-1-methyl-6-oxo-1,6-dihydropyridin-3-yl)quinazolin-4-yl)-2-phenylethyl methyl(2-(methylamino)ethyl)carbamate]: the IC50 on BRD4(BD1+BD2) protein is 91 nM.
Turning to `Cn1cc(-c2ccc3nc(N4CCC(OC5CCNCC5)CC4)nc(C(CO)(c4ccccc4)c4ccccc4)c3c2)c2ccoc2c1=O` [Example 35, 4-(4-(2-Hydroxy-1,1-diphenylethyl)-2-(4-(piperidin-4-yloxy)piperidin-1-yl)quinazolin-6-yl)-6-methylfuro[2,3-c]pyridine-7(6H)-one], the values for the IC50 (on BRD4(BD1+BD2) protein; in assay [1]) were 87 nM and 0.038 nM, respectively.
In the case of `C#CC1(O)CCN(C2CCN(c3nc(C(CO)(OC4CC4)c4ccccc4)c4cc(-c5cn(C)c(=O)c6[nH]ccc56)ccc4n3)CC2)CC1` (stereo not shown) [Example 30], the IC50 at BRD4(BD1+BD2) protein is 27 nM; in assay [1], under 0.015 nM.
In the same order, the values of `C#CC1CCN(c2nc(C(CO)(OC3CC3)c3ccccc3)c3cc(-c4cn(C)c(=O)c5[nH]ccc45)ccc3n2)CC1` (stereo not shown) [Example 26, 4-(4-(1-Cyclopropoxy-2-hydroxy-1-phenylethyl)-2-(4-ethynylpiperidin-1-yl)quinazolin-6-yl)-6-methyl-1,6-dihydro-7H-pyrrolo[2,3-c]pyridin-7-one] are 47 nM and 0.032 nM.
On to `Cc1cc(-c2ccc3nc(N)nc([C@@](CO)(OC4CC4)c4ccccc4)c3c2)cn(C)c1=O` [Example 36, (S)-5-(2-Amino-4-(1-cyclopropoxy-2-hydroxy-1-phenylethyl)quinazolin-6-yl)-1,3-dimethylpyridin-2(1H)-one], for which the results for the IC50 (on BRD4(BD1+BD2) protein; in assay [1]) were 25 nM and 0.035 nM, respectively.
On to `CCCC(CO)(CCC)c1nc(N2CCC(CN3CCNCC3)CC2)nc2ccc(-c3cn(C)c(=O)cc3OC)cc12` [Example 32, 5-(4-(4-(Hydroxymethyl)heptan-4-yl)-2-(4-(piperazin-1-ylmethyl)piperidin-1-yl)quinazolin-6-yl)-4-methoxy-1-methylpyridin-2(1H)-one], for which the IC50 on BRD4(BD1+BD2) protein was determined as 81 nM.
The same measure, in the same setting: the result for `Cc1cc(-c2ccc3nc(N)nc(C(CO)(OC4CC4)c4ccccc4)c3c2)cn(C)c1=O` (stereo not shown) [Example 2, 5-(2-Amino-4-(1-cyclopropoxy-2-hydroxy-1-phenylethyl)quinazolin-6-yl)-1,3-dimethylpyridin-2(1H)-one] reads 26 nM.
For `C#CCNC1(C)CCN(C2CCN(c3nc(C(CO)(OC4CC4)c4ccccc4)c4cc(-c5cn(C)c(=O)c6[nH]ccc56)ccc4n3)CC2)CC1` (stereo not shown) [Example 29, 4-(4-(1-Cyclopropoxy-2-hydroxy-1-phenylethyl)-2-(4-methyl-4-(prop-2-yn-1-ylamino)-[1,4′-bipiperidin]-1′-yl)quinazolin-6-yl)-6-methyl-1,6-dihydro-7H-pyrrolo[2,3-c]pyridin-7-one], the figures for the IC50 (at BRD4(BD1+BD2) protein; in assay [1]) were 57 nM and 0.041 nM, respectively.
Taken in the same sequence, the figures for `C[C@@H]1CN(C2CCN(c3nc(C(CN)(OC4CC4)c4ccccc4)c4cc(-c5cn(C)c(=O)c6[nH]ccc56)ccc4n3)CC2)[C@@H](C)CN1` (stereo partly shown) [Example 31] were 61 nM and 0.037 nM.
For the compound `C[C@@H]1CN(CC2CCN(c3nc(C(CN)(OC4CC4)c4ccccc4)c4cc(-c5cn(C)c(=O)c6[nH]ccc56)ccc4n3)CC2)[C@@H](C)CN1` (stereo partly drawn) [Example 28, 4-(4-(2-Amino-1-cyclopropoxy-1-phenylethyl)-2-(4-(((2S,5R)-2,5-dimethylpiperazin-1-yl)methyl)piperidin-1-yl)quinazolin-6-yl)-6-methyl-1,6-dihydro-7H-pyrrolo[2,3-c]pyridin-7-one], the IC50 on BRD4(BD1+BD2) protein worked out at 82 nM; in assay [1], 0.023 nM.
As for `Cn1cc(-c2ccc3nc(N4CCC(N5CCC(C)(N)CC5)CC4)nc(C(CO)(OC4CC4)c4ccccc4)c3c2)c2cc[nH]c2c1=O` (stereo not shown) [Example 27, 4-(2-(4-Amino-4-methyl-[1,4′-bipiperidin]-1′-yl)-4-(1-cyclopropoxy-2-hydroxy-1-phenylethyl)quinazolin-6-yl)-6-methyl-1,6-dihydro-7H-pyrrolo[2,3-c]pyridin-7-one], the IC50 on BRD4(BD1+BD2) protein turned out to be 80 nM.
